Measured values published in publication PMC7274485, “A symbiotic bacterium of shipworms produces a compound with broad spectrum anti-apicomplexan activity” (PLoS Pathogens, 2020).
Entries after “also recorded” stand apart in the source; their conditions may differ.

Columns and labels:
Cryptosporidium parvum = assay: Neonatal mouse model of Cryptosporidium parvum infection; type: in vivo, mice; conditions: for Number of parasites in the intestine (histology infection score): 2 mg/kg orally every 12 hours, four doses, 5 days post infection, purification method 1
Experimental: Of all apicomplexans that infect both humans and domesticated animals, Cryptosporidium is a particular challenge for human and veterinary medicine as there is currently no effective treatment for this parasite. We chose to evaluate the in vivo efficacy of trtE using a neonatal mouse model of C. parvum infection. […] In a preliminary experiment, ten, 8 day old mice were infected with C. parvum and then treated with four doses of 2 mg/kg of trtE (purification method 1) given orally every 12 hours for 2 days. Control mice received DMSO vehicle control. Five days post infection, mice were euthanized and the intestines processed for histology. Infection was scored by visual evaluation of infection intensity throughout the intestine by an investigator blinded to treatment. […] Eight-day-old mice, infected with C. parvum, were treated orally twice daily with trtE at 0.4, 4 or 40 mg/kg beginning two days post-infection and continuing for 2 days. On day 5, mice were euthanized and intestines processed for quantitative PCR to quantify infection.
8-day-old mice were infected with 5x10^4 oocysts by oral gavage. In the initial preliminary experiment using trtE purified by method 1, mice were treated 48 hrs post infection with 2 mg/kg trtE every 12 hours by oral gavage for a total of 4 treatments. Control mice received vehicle control (DMSO diluted in DMEM containing 10% fetal calf serum). Mice were sacrificed 5 days post infection and intestines prepared for histological evaluation. Slides were blinded and the intensity of infection scored in the terminal jejunum, ileum, caecum and colon as previously described. Infection intensity scores for each region were added together to give a total infection score for the animal.
In the second set of experiments, mice were infected and treated as before, with 0.4, 4 or 40 mg/kg of trtE purified using method 2. Control mice received vehicle control in parallel. Mice were sacrificed 5 days post-infection and infection quantified by qPCR as previously described. The experiment was conducted three times.

T. gondii ME49 = assay: Length of treatment needed to kill intracellular T. gondii (compound wash-off, luciferase 72 hours later); type: cell-based, Toxoplasma gondii; conditions: 30 nM trtE, ME49 in HFF, treated 0.5 to 4 hours, washed off, growth 72 hours after treatment
Experimental: To test this hypothesis, we infected HFF cells with luciferase-expressing T. gondii ME49 for 24 hours, then treated infected cells with trtE for 30 minutes to 4 hours. The compound was then washed off the infected cells, and parasite growth was quantified 3 days after the removal of the compound. Parasites treated for at least 2 hours were killed by trtE (Fig 2E).
T. gondii parasite lines were maintained by passage in HFFs as previously described. To determine the effect of trtE on intracellular parasites, 96 well plates containing confluent HFFs were infected with T. gondii strain ME49 modified to express green fluorescent protein (GFP) and luciferase (Luc), generated as described or T. gondii RH strain GFP/Luc (a kind gift from Dr. Jeroen Saeij, UC Davis). […] Growth was monitored by luciferase expression using Bright-glo Luciferase assay system (Promega Corp., Madison, WI). To determine the length of treatment needed to kill intracellular parasites, trtE was added to infected cells and then the compound removed 0.5, 1, 2 and 4 hours later by washing the monolayer three times with complete media. Infected cells were then incubated for 72 hours before growth was quantified by luciferase expression. For time-lapse images, HFFs were seeded into 35 mm glass bottom microwell dishes (MatTek Corporation, Ashland, MA). […]

C. parvum = assay: Immunofluorescence assay (anti-gp15) of C. parvum-infected HCT8 cells; type: cell-based, Cryptosporidium parvum; conditions: 60 nM trtE, 12 hours, HCT8 cells infected 8 hours
Experimental: We had postulated that secondary metabolites generated by symbiotic bacteria of invertebrates might include compounds that target gregarines, an ancient group of apicomplexans found in most, and perhaps all, invertebrates. The only gregarines known to infect mammals are Cryptosporidium species, gastrointestinal parasites that cause diarrheal disease in humans and other mammals. HCT8 cells were infected with luciferase-expressing Cryptosporidium parvum parasites for 24 hours, then two-fold dilutions of trtE added to the infected cells. 48 hours after the addition of trtE, parasite growth was quantified by luciferase expression. […]
For all IFAs, the investigator reading the slides and collecting images was blind to the sample treatment. […] 24 hours post treatment, infected cells were fixed with methanol, and parasites detected with rabbit anti-SAG1 antibody for T. gondii or rabbit anti-gp15 for C. parvum as we have described previously. […] This CE11 line is transiently transfected with a plasmid that expresses nanoluciferase from a B. divergens promoter and green fluorescence protein-blasticidin (gfp-bsd) from the selection cassette. […] Mean background levels were determined for individual images by assaying areas lacking cells, and the values were subtracted, whereas maximum fluorescent values were individually set as the upper limit. […]

## CC1CCC=CC=CCCC(O)CC(=O)CC2CCC(C)C3(O2)O[B-]24OC(C(=O)O1)C1(OC(CCC1C)CC(=O)CC(O)CCC=CC=CCCC(C)OC(=O)C3O2)O4 (centres unmarked) [trtE, tartrolon E]
Cryptosporidium parvum
  Number of parasites in the intestine (histology infection score): significantly reduced the number of parasites
Cryptosporidium parvum; listed as TrtE
  Number of parasites in the intestine (histology infection score): significantly reduced the number of parasites in the intestine
Cryptosporidium parvum; 4 mg/kg orally twice daily for 2 days from two days post-infection, day 5, purification method 2
  Reduction of intestinal Cryptosporidium infection (qPCR): 85%
Cryptosporidium parvum; 40 mg/kg orally twice daily for 2 days from two days post-infection, day 5, purification method 2
  Intestinal Cryptosporidium infection (qPCR): nearly eliminated
Cryptosporidium parvum; four doses of 40 mg/kg over two days
  Overt signs of toxicity in neonatal mice (discussion): did not exhibit overt signs of toxicity
Cryptosporidium parvum; oral doses up to 40 mg/kg twice daily for 2 days
  Overt signs of toxicity in trtE treated neonatal mice: no overt toxicity was observed; also recorded: did not observe overt toxicity; also recorded: no overt signs of toxicity
T. gondii ME49
  Length of trtE treatment after which parasites were killed: kills the parasites after two hours of treatment
C. parvum
  Morphology of trtE treated C. parvum (IFA): no visible intact merozoites; also recorded: few discernable parasites
